Source: ChEMBL document CHEMBL1157539, “Thousands of chemical starting points for antimalarial lead identification” (Nature, 2010)

Tested on: Plasmodium falciparum
Assay: GSK_TCMDC: Inhibition of Plasmodium falciparum 3D7 in whole erythrocytes, using parasite LDH activity as an index of growth.
Type: functional, organism-based
Details: Plasmodium falciparum, 3D7

Row | Compound | XC50 [nM]
1 | CCN1CCC(N(Cc2ccc(-c3ccc(C(F)(F)F)cc3)cc2)C(=O)Cn2c(CCc3cccc(F)c3F)cc(=O)c3c2CCCC3)CC1 | 755
2 | Cc1nc2c(s1)c(=O)cc(CCc1cccc(F)c1F)n2CC(=O)N(Cc1ccc(-c2ccc(C(F)(F)F)cc2)cc1)C1CCN(C(C)C)CC1 | 767
3 | CCN1CCC(N(CCCCCCc2ccc(C(F)(F)F)cc2)C(=O)Cn2c(CCc3cccc(F)c3F)cc(=O)c3ccccc32)CC1 | 927
4 | O=[N+]([O-])c1ccc2nccnc2c1 | 1070
5 | CCNc1cc(C(=O)N[C@@H](Cc2ccccc2)[C@H](O)CNC2CCCC2)cc(N2CCCC2=O)c1 | 83.4
6 | Cc1cc(Nc2ccc3ccccc3c2)n2ncnc2n1 | 173
7 | CN1CCC(N2CCN(Cc3cccc(-c4cccc(-c5nc6ccccc6[nH]5)c4)c3)CC2)CC1 | 194
8 | COc1ccc(CCNc2nc(NCc3ccccc3)c3cc(OC)c(OC)cc3n2)cc1OC | 326
9 | COC(=O)c1cc(C(O)CNC(C)CCCc2ccccc2)ccc1O (centres undefined) | 742
10 | Cn1nccc1C(=O)NCCNCc1ccc(-c2ccc(-c3nc4cc(C(F)(F)F)ccc4[nH]3)cc2)cc1 | 145
11 | Nc1nc(N)c2c(ccc3c2ccn3Cc2ccc(F)cc2)n1 | 6.53
12 | CC[C@H]1CN2CC[C@@H]1C[C@H]2[C@H](O)c1cc(-c2cc(Cl)cc(Cl)c2)nc2ccc(OC)cc12 | 235
13 | COc1c(CCNCCCCNCCc2cc(Cl)c3ccccc3c2OC)cc(Cl)c2ccccc12 | 168
14 | Cc1ccc(NC(C)C(=O)Nc2ccc(C#N)cc2)cc1S(=O)(=O)N1CCCCC1 (centres undefined) | 545
15 | COc1cc(Cc2cnc(N)nc2N)ccc1Oc1ccc(N)cc1 | 868
16 | CCNc1cc(-c2cccc(OC)c2)nc(Nc2ccc(F)cc2)n1 | 1270
17 | Cc1cc(NCc2ccc(F)cc2)nc2cc(O)ccc12 | 762
18 | FC(F)(F)c1ccc2[nH]ccc(=NN=CC=Cc3ccccc3)c2c1 | 1020
19 | O=[N+]([O-])c1ccc(Oc2c(Cl)cc(S(=O)(=O)NC3CCC(CN4CCC(c5c[nH]c6ccccc56)CC4)CC3)cc2Cl)c(Cl)c1 (centres undefined) | 758
20 | Cc1cc(C=C(P(=O)(OC(C)C)OC(C)C)P(=O)(OC(C)C)OC(C)C)c2ccccc2c1O | 1080
21 | CCNc1cc(C(=O)N[C@@H](Cc2ccccc2)[C@H](O)CNCCC(C)c2ccccc2)cc(N2CCCC2=O)c1 (some centres undefined) | 511
22 | O=c1cc(NCCC(CNCCc2ccccc2)NCc2cc(Br)cc(Br)c2)[nH]c2ccccc12 (centres undefined) | 514
23 | Fc1ccccc1C=NN=c1cc[nH]c2ccc(C(F)(F)F)cc12 | 871
24 | N#Cc1cccc(NC(=O)c2ccc(S(=O)(=O)NCC3CCCN3CC3CCCCC3)cc2)c1 (centres undefined) | 1050
25 | N=c1n(Cc2ccccc2)c2ccccc2n1CC(O)c1ccc(Cl)c(Cl)c1 (centres undefined) | 828

Row | Compound | XC50 [nM]
26 | C=CCN1C(=O)CN(S(=O)(=O)c2ccc(-n3nc(C)cc3C)cc2)C1=S | 941
27 | Fc1ccc2[nH]c(-c3ccc(-c4ccc(CNCC5CCCO5)cc4)s3)nc2c1 (centres undefined) | 599
28 | CCn1c(-c2nonc2N)nc2cnc(Oc3cccc(NC(=O)c4ccc(OCCN(C(C)C)C(C)C)cc4)c3)cc21 | 780
29 | Nc1nc(N)c2c(ccc3c2ncn3Cc2ccccc2)n1 | 93.4
30 | CCCc1cc(OC)c(C[C@@H]2c3cc(O)c(Cl)cc3CCN2C)cc1OC | 722
31 | CCCCCCCc1c(C)nc2c(OC)cccc2c1O | 921
32 | CN(Cc1ccccc1)C(=O)CCNS(=O)(=O)c1cc(Br)cnc1N | 1130
33 | COc1ccc2cc(-c3nc(-c4c(Cl)cccc4Cl)[nH]c3-c3ccnc(NCCCN4CCCCC4C)c3)ccc2c1 (centres undefined) | 948
34 | COc1ccc(Nc2ncc3c(-c4cccc(NC(=O)Cc5ccc(F)cc5)c4)c[nH]c3n2)cc1OC | 594
35 | O=C(NCc1ccc(C(F)(F)F)cc1)c1cccc(-c2nnc(-c3cccc(-c4cncnc4)c3)o2)c1 | 544
36 | CN(C)c1ccc(CN2CCCCC(NC(=O)c3cc(-c4ccccc4Cl)cs3)C2)cc1 (centres undefined) | 1060
37 | COc1cccc2[nH]c(NCCCNCc3cc(Br)cc(Br)c3)nc12 | 950
38 | CC(CN(C)C)C(=O)Nc1ccc(-c2cccc(-c3nc4ccccc4[nH]3)c2)cc1 (centres undefined) | 722
39 | COc1ccc(CNc2ccnc3cc(OC)ccc23)cc1 | 766
40 | O=C(CN1CCC2(CCC1=O)CC(=O)c1ccccc1O2)NCCN1CCOCC1 (centres undefined) | 221
41 | CCNc1cc(C(=O)N[C@@H](Cc2ccccc2)[C@H](O)CNCc2cccc(-c3cncnc3)c2)cc(N2CCCC2=O)c1 | 663
42 | NC1=NC2(CCCC2)N(c2ccc(Cl)cc2)C(N)=N1 | 414
43 | N=C(N)Nc1ccc(CCc2ccc(NC(=N)N)cc2)cc1 | 289
44 | CCCCNCc1ccc(OCc2cccc(COc3ccc(CNCCCC)cc3)c2)cc1 | 318
45 | CCCNC(=O)Nc1ccc(N(C)c2ccnc(NC3CC3)n2)cc1 | 618
46 | CC(C)Cn1cc2c(ccc3nc(N)nc(N)c32)n1 | 303
47 | Cc1cc(Cc2ccc(S(=O)(=O)c3cc4c(cc3O)CCN(C)CC4)cc2)ccc1Cl | 911
48 | CC(=O)Nc1nc(C(=O)Nc2cccc(-c3ccc(-c4nc5cccc(C)c5[nH]4)cc3)c2)cs1 | 232
49 | COc1ccc(NC(=O)/C=C/c2ccccc2Cl)cc1OCCN1CCC(N2CCCCC2)CC1 | 901
